Laboratory results published in US9708628B2, “Cationic lipid having improved intracellular kinetics” (NOF CORPORATION, priority 2011, dated 2017).

How the values were obtained:
[1] = test system: Rabbit Reticulocyte Lysate Systems; test: Influence on in vitro translation reaction (luciferase mRNA); assay type: biochemical; conditions: MEND 0.0625-0.25 μg per 1 μL mRNA solution, 30° C., 90 min
Method: MENDs having a composition of B-2:SOPE:Chol=5:3:2 were prepared by the method described in [Experimental Example 1] (2). For the preparation, PEG2000-DMG was used as PEG lipid, and MEND solutions corresponding to 0.55 mM of the lipid concentration were prepared. For cationic MEND, lipids having a composition of DOTAP:DOPE:Chol:=3:4:3 were used, and the cationic MEND was prepared according to the method described in [Experimental Example 1] (3).
Luciferase-mRNA solution was diluted to 0.005 μg/μL. Various MEND solutions were added in 0.0625, 0.125, 0.25 μg relative to 1 μL of mRNA solution to adjust the total amount to 6.5 μL. A mixture of RRL (Rabbit Reticulocyte Lysate, 17.5 μL), AAM (Amino Acid Mixture)-Met (0.25 μL), AAM-Leu (0.25 μL), and RRI (Recombinant RNase Inhibitor, 0.5 μL) was added, and the mixture was stood at 30° C. for 90 min.
10 μL thereof was mixed with a Luciferase assay substrate (50 μL), and the luciferase activity in a given time was measured by a luminometer. […] Thereafter, the absorbance at 562 nm was measured, and the protein amount of the sample was calculated from the absorbance of a BSA solution having a known concentration. The luciferase activity (RLU) was adjusted by dividing with protein amount (mg), and the luciferase activity per cellular protein amount (RLU/mg protein) was calculated.

[2] = test system: HT1080 cells; test: Endosomal escape efficiency (rhodamine-pDNA, Lysotracker Green, 6 hr); assay type: cell-based; conditions: 6 hr after transfection
Method: For MEND preparation, the Rhodamine-labeled pDNA prepared by the method of [Experimental Example 1] (4) was used. When MEND encapsulating rhodamine-labeled pDNA was prepared, 50% of the pDNA solution described in [Experimental Example 1] (1) was replaced by rhodamine-labeled pDNA.
(§1) MENDs having a composition of B-2-4 (Example 4):DOPE:Chol=3:3:4, B-2 (Example 1):SOPE:Chol=5:3:2 were prepared by the method described in [Experimental Example 1] (2). For the preparation, PEG2000-DMG was used as PEG lipid, and MEND solutions corresponding to 0.55 mM of the lipid concentration were prepared.
(§2) HT1080 cells were plated on a glass bottom dish at 5×10^4 cells/2 mL/dish 24 hr before. MEND was diluted with DMEM (FBS 10%+) to achieve pDNA 1.6 μg/2 mL and transfected into cells. After 5.5 hr, Lysotracker Green (Life technologies) was added at 2 μL/dish. 6 hr after the transfection, the cells were washed twice with heparin (20 units/mL, 2 mL), Krebs buffer (1 mL) was added, and the cells were observed by a confocal laser scan microscope.
Rhodamine-labeled pDNA, endosome/lysosome and nucleus were shown in pseudo colors of red, green and blue, respectively. The endosomal escape efficiency was calculated according to the following formula.

[3] = test system: HT1080 cells; test: Evaluation of endosome amount (Lysotracker Green); assay type: cell-based; conditions: 6 hr after transfection
Method: as §1
as §2, with “into the” for “into”, “cells. The cells without transfection of MEND were used as a control.” for “cells.”, “μL/dish and Hoechst 33342 (Dojindo) was further added at 2 μL/dish 30 min later.” for “μL/dish.”
Endosome/lysosome and nucleus were shown in pseudo colors of green and blue, respectively. The relative endosome amount was calculated according to the following formula.

[4] = Particle size and surface potential of siRNA MENDs prepared by t-BuOH injecting method; assay type: physicochemical; conditions: siRNA MEND, cationic lipid/cholesterol=70/30, DMG-PEG2000 3%
Method: A lipid solution in t-BuOH with a composition of cationic lipid/cholesterol=70/30, DMG-PEG2000 3% and a total lipid amount of 3000 nmol/400 μL (7.5 mM) was prepared in a 1.7 mL tube. In a separate 1.7 mL tube, an siRNA solution was prepared by mixing an siRNA aqueous solution containing siRNA (160 μg) and 20 mM malate buffer (pH 4.00, 30 mM NaCl) to total 50 μL. With vigorous stirring of the lipid solution, the siRNA solution was gradually added dropwise, and the mixed solution was taken in a 1 mL syringe. Then, 20 mM malate buffer (pH 4.00, 30 mM NaCl, 2 mL) was added into a 5 mL tube, and the mixed solution was gradually injected with vigorous stirring. Thereafter, the mixture was further diluted with PBS (7 mL) and centrifuged at 1000 g, 30° C. for 10 min in Amicon Ultra-15-100K to a volume of less than 1.5 mL. PBS (15 mL) was added, and the solution was centrifuged again to about 500-1000 μL. Finally, the MEND solution was adjusted by diluting with PBS to the object lipid concentration.
The particle size and surface potential of various MENDs were measured according to the method described in [Experimental Example 2] and the results are shown in Table 6.

[5] = test system: liver; test: Intrahepatic behavior of MEND (intravital confocal microscopy); assay type: in vivo, ICR mice; conditions: Rhodamine-DOPE labeled MEND, 40 μg DNA/mouse, about 10 min filming
Method: Rhodamine-DOPE was added to R8/GALA-MEND in an amount of 0.1% of the total lipid concentration, and to B-2 MEND in an amount of 1% of the total lipid concentration. 50 mg/mL Sodium pentobarbital (Nacalai Tesque) was diluted 5-fold with saline and intraperitoneally administered to ICR mice (5-week-old male) for anesthesia. Griffonia simplicifolia Lectin I-B4 Isolectin, FITC Conjugate (VECTOR Laboratories, about 80 μL) was administered to the mice under anesthesia from the tail vein to stain the vascular endothelial cells. […] A winged intravenous indwelling needle connected with an extension tube filled with the MEND solution was indwelled in the tail vein of the mouse. To prevent dislocation of the observation site due to the heart beat of the mouse, a device for fixing the liver by adsorption (Shimizu K et al., J Biosci Bioeng. 112(5): 508-10) was used, and the mouse was observed using a confocal microscope (Nikon A1) with a 60-fold water immersion lens.

[6] = test system: IFN-γ; test: Cytokine production by MEND administration, IFN-γ (ELISA); assay type: in vivo, ICR mice; conditions: pCpGfree-Luc(0), 40 μg DNA
Method: MENDs used in [Experimental Example 12] were each administered to 5-week-old male ICR mice from the tail vein in an amount corresponding to 40 μg DNA. 1, 3, 6, 24 hr later, the blood was collected from the heart, and TNF-α, IFN-γ, IL-12p70 were measured using Quantikine ELISA kit (R&D Systems).

CCCCCCCC/C=C\CCCCCCCC(=O)OCC(C[N+](C)(C)C)OC(=O)CCCCCCC/C=C\CCCCCCCC (stereo not drawn) [DOTAP, reference compound]
inhibitory effect on in vitro translation reaction [1]: significant inhibitory effect

CC1=C(/C=C/C(C)=C/C=C/C(C)=C/C(=O)OCCCN(C)CCSSCCN(C)CCCOC(=O)/C=C(C)/C=C/C=C(C)/C=C/C2=C(C)CCCC2(C)C)C(C)(C)CCC1 [Example B-2-4]
endosomal escape efficiency [2]: significantly higher endosomal escape efficiency than B-2
relative endosome amount [3]: significant decrease in endosome than the untreated group and the B-2 treatment group

Cc1c(C)c2c(c(C)c1OC(=O)CCC(=O)OCCCN(C)CCSSCCN(C)CCCOC(=O)CCC(=O)Oc1c(C)c(C)c3c(c1C)CCC(C)(CCCC(C)CCCC(C)CCCC(C)C)O3)CCC(C)(CCCC(C)CCCC(C)CCCC(C)C)O2 (stereo not drawn) [Example B-2-5]
PDI [4]: 0.076
size (nm) [4]: 110 nm
zeta (mV) [4]: −9.5 mV

CCCCCCCCCCCCCC(=O)OCCCN(C)CCSSCCN(C)CCCOC(=O)CCCCCCCCCCCCC [Example B-2]
inhibitory effect on in vitro translation reaction [1]: not observed
behavior in liver blood vessels [5]: coagulation was not formed and the MEND uniformly flows through the blood vessels
IFN-γ blood concentration [6]: maintained the normal value at any time point
